The text below walks through data of US20210380595A1 (ARAXES PHARMA LLC, priority 2018, published 2021).

One test concerns the target T1, KRAS G12C 1-169, his-tagged protein, GDP-loaded (Homo sapiens, UniProt P01116, G12C).
T1 construct: KRAS G12C 1-169, his-tagged protein, GDP-loaded
Description: Biochemical assay: covalent modification of KRAS G12C measured by mass spectrometry (RapidFire/TOF or Q-Exactive). Further: time not given here. Type of test: binding. To be noted: tested at 32 μM. The method, boiled down:
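GDP-loaded KRAS G12C 1-169 (his-tagged, 2 μM or 0.5 μM in 20 mM Hepes, 150 mM NaCl, 1 mM MgCl2) reacted with compound at 32 μM or 8 μM final, then quenched with formic acid. Intact-protein LC-MS (RapidFire/TOF or Q-Exactive) with charge-envelope deconvolution; % modification from modified vs unmodified peak intensities.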
Consider `C=CC(=O)N1CC2(CCN(c3cc(OCc4ccccn4)c(Cl)c(-c4c(C)ccc5[nH]ncc45)c3C#N)CC2)C1` [Compound I-122, 6-(2-acryloyl-2,7-diazaspiro[3.5]nonan-7-yl)-3-chloro-2-(5-methyl-1H-indazol-4-yl)-4-(pyridin-2-ylmethoxy) benzonitrile], for which the Bind % entry is “++ (++ indicates binding activity from 50 to 75%)”.
For `C=CC(=O)N1CC2(CCN(c3cc(N4CC(N5CCOCC5)C4)c(F)c(-c4c(C)ccc5[nH]ncc45)c3C#N)CC2)C1` [Compound I-123, 6-(2-acryloyl-2,7-diazaspiro[3.5]nonan-7-yl)-3-fluoro-2-(5-methyl-1H-indazol-4-yl)-4-(3-morpholino-azetidin-1-yl)benzonitrile], the Bind % result is “+ (+ indicates binding activity greater than 0% and up to 50%)”.
With `C=CC(=O)N1CC2(CCN(c3cc(N4CCOCC4)c(Cl)c(-c4c(C)ccc5[nH]ncc45)c3C#N)CC2)C1` [Compound I-124, 6-(2-acryloyl-2,7-diazaspiro[3.5]nonan-7-yl)-3-chloro-2-(5-methyl-1H-indazol-4-yl)-4-morpholino-benzonitrile], the Bind % entry was “+ (+ indicates binding activity greater than 0% and up to 50%)”.
With `C=CC(=O)N1CC2(CCN(c3cc(OCCCN(C)C)c(Cl)c(-c4c(C)ccc5[nH]ncc45)c3C#N)CC2)C1` [Compound I-125, 6-(2-acryloyl-2,7-diazaspiro[3.5]nonan-7-yl)-3-chloro-4-(3-(dimethylamino)propoxy)-2-(5-methyl-1H-indazol-4-yl)benzonitrile], the Bind % entry is reported as “++ (++ indicates binding activity from 50 to 75%)”.
With `C=CC(=O)N1CC2(CCN(c3cc(OC[C@H]4CCCN4C)c(F)c(-c4c(C)ccc5[nH]ncc45)c3C#N)CC2)C1` [Compound I-127, 6-(2-acryloyl-2,7-diazaspiro[3.5]nonan-7-yl)-3-fluoro-2-(5-methyl-1H-indazol-4-yl)-4-(((R)-1-methylpyrrolidin-2-yl)methoxy) benzonitrile], the Bind % entry is “++ (++ indicates binding activity from 50 to 75%)”.
Take `C=CC(=O)N1CC2(CCN(c3cc(OC[C@@H]4CCCN4C)c(F)c(-c4c(C)ccc5[nH]ncc45)c3C#N)CC2)C1` [Compound I-128, 6-(2-acryloyl-2,7-diazaspiro[3.5]nonan-7-yl)-3-fluoro-2-(5-methyl-1H-indazol-4-yl)-4-(((S)-1-methylpyrrolidin-2-yl)methoxy) benzonitrile]: the Bind % entry was “+ (+ indicates binding activity greater than 0% and up to 50%)”.
For `C=CC(=O)N1CC2(CCN(c3ccc(OCC(F)(F)F)c(-c4c(C)ccc5[nH]ncc45)c3C#N)CC2)C1` [Compound I-130, 6-(2-acryloyl-2,7-diazaspiro[3.5]nonan-7-yl)-2-(5-methyl-1H-indazol-4-yl)-3-(2,2,2-trifluoroethoxy) benzonitrile], the Bind % result was “+ (+ indicates binding activity greater than 0% and up to 50%)”.
On to `C=CC(=O)N1CC2(CCN(c3cc(N(C)CCN4CCCC4)c(F)c(-c4c(C)ccc5[nH]ncc45)c3C#N)CC2)C1` [Compound I-131, 6-(2-acryloyl-2,7-diazaspiro[3.5]nonan-7-yl)-3-fluoro-4-(methyl(2-(pyrrolidin-1-yl)ethyl)amino)-2-(5-methyl-1H-indazol-4-yl)benzonitrile], for which the Bind % result was “+ (+ indicates binding activity greater than 0% and up to 50%)”.
Consider `C=CC(=O)N1CC2(CCN(c3cc(OC)c(Cl)c(-c4c(C)ccc5[nH]ncc45)c3C#N)CC2)C1` [Compound I-132, 6-(2-acryloyl-2,7-diazaspiro[3.5]nonan-7-yl)-3-chloro-4-methoxy-2-(5-methyl-1H-indazol-4-yl)benzonitrile], for which the Bind % result is “+ (+ indicates binding activity greater than 0% and up to 50%)”.
The same measure, in the same setting: in the case of `C=CC(=O)N1CC2(CCN(c3cc(NCCc4ccccn4)c(F)c(-c4c(C)ccc5[nH]ncc45)c3C#N)CC2)C1` [Compound I-133, 6-(2-acryloyl-2,7-diazaspiro[3.5]nonan-7-yl)-3-fluoro-2-(5-methyl-1H-indazol-4-yl)-4-((2-(pyridin-2-yl)ethyl)amino) benzonitrile] it was “+ (+ indicates binding activity greater than 0% and up to 50%)”; in that of `C=CC(=O)N1CC2(CCN(c3cc(OCCN4CCCC4)c(F)c(-c4c(C)ccc5[nH]ncc45)c3C#N)CC2)C1` [Compound I-135, 6-(2-acryloyl-2,7-diazaspiro[3.5]nonan-7-yl)-3-fluoro-2-(5-methyl-1H-indazol-4-yl)-4-(2-(pyrrolidin-1-yl)ethoxy) benzonitrile], “+ (+ indicates binding activity greater than 0% and up to 50%)”.
Still for that read-out and setting: for `C=CC(=O)N1CC2(CCN(c3cccc(-c4c(C)ccc5[nH]ncc45)c3C#N)C2)C1CC` (stereo not drawn) [Compound I-137, 2-(2-acryloyl-1-ethyl-2,6-diazaspiro[3.4]octan-6-yl)-6-(5-methyl-1H-indazol-4-yl)benzonitrile] the value was “+ (+ indicates binding activity greater than 0% and up to 50%)”; for `C=CC(=O)N1CC2(CCN(c3cc(OCc4ccccn4)cc(-c4c(C)ccc5[nH]ncc45)c3C#N)C2)C1CC` (stereo not drawn) [Compound I-138], “++ (++ indicates binding activity from 50 to 75%)”.
In the case of `C=CC(=O)N1CC2(CCN(c3cccc(-c4c(C)ccc5[nH]ncc45)c3C#N)C2)C1C(C)C` (stereo not drawn) [Compound I-139, 2-(2-acryloyl-1-isopropyl-2,6-diazaspiro[3.4]octan-6-yl)-6-(5-methyl-1H-indazol-4-yl)benzonitrile], the Bind % result was “+ (+ indicates binding activity greater than 0% and up to 50%)”.

Staying with this test, now noted: tested at a concentration of 8 μM.
Take `C=CC(=O)N1CC2(CCN(c3cccc(-c4c(C)ccc5[nH]ncc45)c3C#N)C2)C1C` (stereo not drawn) [Compound I-126, 2-(2-acryloyl-1-methyl-2,6-diazaspiro[3.4]octan-6-yl)-6-(5-methyl-1H-indazol-4-yl)benzonitrile]: the Bind % result is “+ (+ indicates binding activity greater than 0% and up to 50%)”.
In the case of `C=CC(=O)N1CC2(CCN(c3cc(OCc4ccccn4)cc(-c4c(C)ccc5[nH]ncc45)c3C#N)C2)C1C` (stereo not drawn) [Compound I-129, 2-(2-acryloyl-1-methyl-2,6-diazaspiro[3.4]octan-6-yl)-6-(5-methyl-1H-indazol-4-yl)-4-(pyridin-2-ylmethoxy) benzonitrile], the Bind % entry is reported as “++ (++ indicates binding activity from 50 to 75%)”.
The same measure, in the same setting: in the case of `C=CC(=O)N1CC2(CCN(c3ccc(F)c(-c4c(C)ccc5[nH]ncc45)c3C#N)C2)C1C` (stereo not drawn) [Compound I-134, 6-(2-acryloyl-1-methyl-2,6-diazaspiro[3.4]octan-6-yl)-3-fluoro-2-(5-methyl-1H-indazol-4-yl)benzonitrile] it was “++ (++ indicates binding activity from 50 to 75%)”; in that of `C=CC(=O)N1CC2(CCN(c3cc(N4CCC(CN(C)C)CC4)c(F)c(-c4c(C)ccc5[nH]ncc45)c3C#N)CC2)C1` [Compound I-136, 6-(2-acryloyl-2,7-diazaspiro[3.5]nonan-7-yl)-4-(4-((dimethylamino)methyl)piperidin-1-yl)-3-fluoro-2-(5-methyl-1H-indazol-4-yl)benzonitrile], “+ (+ indicates binding activity greater than 0% and up to 50%)”.
